Data taken from patent publication US20220395500A1, “SMALL MOLECULE ACTIVATORS OF INTERFERON REGULATORY FACTOR 3 AND METHODS OF USE THEREOF” (Neuralexo, Inc., priority 2020, published 2022).
pEC50: −log10 of the molar value.

Columns and labels:
[1] = tested on: NF-κB-SEAP reporter in THP1-Dual cells; assay: THP1-Dual NF-κB-SEAP reporter counterscreen; assay type: cell-based, human; details: Homo sapiens, THP1-Dual, Human Reporter Cell Line THP1; read-out: THP1 NFkB EC50
Summary of the method: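 Reporters measured from supernatant after 24 h compound exposure (10 μM final) in PMA-differentiated (5 ng/mL, 48 h) THP-1 Dual monocytes: ISG54/ISRE-driven Lucia via QUANTI-Luc luminescence; NF-κB-driven SEAP via QUANTI-Blue, 1 h 37° C, 630 nm. Control wells received LPS at 313 ng/mL.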

[2] = THP1-Dual cytotoxicity (Cell Titer Glo, ATP); assay type: cell-based, human; details: human, THP1-Dual cells, Human Reporter Cell Line THP1; read-out: Thp1 cytotox CC50
Summary of the method: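 CC50, the concentration killing half the cells, was derived from ATP-dependent CellTiter-Glo luminescence. Cells were THP1-Dual (human) and compound was tested as an 8-point dose-response series, with viability read in the same plate.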

J774-Dual cytotoxicity = assay type: cell-based, mouse; details: mouse, J774-Dual cells, Mouse Reporter Cell Line J774; read-out: J774 cytotox CC50
Summary of the method: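 CC50 derived from 8-point concentration series in mouse J774-Dual reporter cells, with viability read by CellTiter-Glo in the same plate. Run in parallel with EC50 and ISRE:NFκB ratio determination for cross-species confirmation.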

For `ClCCCOc1ccc(-c2nc3cc(OCCCN4CCCC4)ccc3o2)cc1` [ND-94], the pEC50 [1] was roughly 4.63, the CC50 [2] was greater than 25 µM and the CC50 (J774-Dual cytotoxicity) was greater than 25 µM.
